Literature values, collected in patent publication US6907319B2, “System for the application of pesticides” (Syngenta Crop Protection, Inc., priority 2000, dated 2005).

How the values were obtained:
[1] = increasing the soil temperature
potato = details: cool temperatures (13° C. day/4° C. night) compared with 24° C./13° C.

Compound	reduction of the maximum phytotoxicity threshold [1] [fold]	further results
CCNc1nc(Cl)nc(NC(C)C)n1 [atrazine]	3	
COC(=O)c1sccc1S(=O)(=O)NC(=O)Nc1nc(C)nc(OC)n1 [thiameturon-methyl]		activity with increasing rain (increasing of rain): reduces the activity; performance with increasing temperature and humidity (increasing temperature and humidity): markedly improved
Cc1[nH]c(=O)n(C(C)(C)C)c(=O)c1Cl [terbacil]	2.5	
O=C(O)CNCP(=O)(O)O [glyphosate]		phytotoxicity of glyphosate/ha, less than at 24° C./13° C. (potato): 50%
Nc1c(Cl)c(Cl)nc(C(=O)O)c1Cl [picloram]	1.5	
